Experimental data reported in ChEMBL document CHEMBL3822426, “A cascade screening approach for the identification of Bcr-Abl myristate pocket binders active against wild type and T315I mutant” (Bioorg Med Chem Lett, 2016).
pIC50: −log10 of the molar value. Activity calls are given as the source filed them. The rule behind the calls is not given here.

Tests used:
[1] = test system: Tyrosine-protein kinase ABL1 (Homo sapiens), P00519 [T315I]; conditions: Sf21, 50 uM
Description: Allosteric inhibition of recombinant human N-terminal His6-tagged ABL (27-end residues) T315I mutant expressed in baculovirus infected sf21 cells assessed as Vmax(app) for ATP at 50 uM incubated for 10 mins in presence of [gamma32P]ATP by scintillation counting method

[2] = Cytotoxicity against imatinib mesylate resistant mouse 32D cells expressing BCR/ABL T315I mutant assessed as reduction in cell viability after 48 hrs by cell counting method; type: functional, cell-based
[3] = Cytotoxicity against imatinib mesylate sensitive mouse 32D cells expressing wild type BCR/ABL p210 assessed as reduction in cell viability after 48 hrs by cell counting method; type: functional, cell-based
[4] = test system: Tyrosine-protein kinase ABL1 (Homo sapiens), P00519 [T315I]; conditions: Sf21, 25 uM
Description: Allosteric inhibition of recombinant human N-terminal His6-tagged ABL (27-end residues) T315I mutant expressed in baculovirus infected sf21 cells assessed as Vmax(app) for ATP at 25 uM incubated for 10 mins in presence of [gamma32P]ATP by scintillation counting method

[5] = target: Tyrosine-protein kinase ABL1 (Homo sapiens) (UniProt P00519); conditions: 25 uM
Description: Allosteric inhibition of recombinant wild type ABL (unknown origin) assessed as Vmax(app) for ATP at 25 uM incubated for 10 mins in presence of [gamma32P]ATP by scintillation counting method

[6] = Cytotoxicity against mouse 32D cells assessed as reduction in cell viability at 0.5 to 50 uM after 48 hrs by cell counting method; type: cell-based
[7] = test system: Bcr/Abl fusion protein (Homo sapiens), P00519+P11274 [T315I]; test: Inhibition of BCR/ABL T315I mutant (unknown origin) expressed in mouse 32D cells assessed as reduction in CRKL phosphorylation at Tyr-207 residue at 1 uM after 24 hrs by Western blot analysis; type: cell-based
[8] = test system: Tyrosine-protein kinase ABL1 (Homo sapiens), P00519 [T315I]; conditions: Sf21, 100 uM
Description: Allosteric inhibition of recombinant human N-terminal His6-tagged ABL (27-end residues) T315I mutant expressed in baculovirus infected sf21 cells assessed as Vmax(app) for ATP at 100 uM incubated for 10 mins in presence of [gamma32P]ATP by scintillation counting method

[9] = target: Tyrosine-protein kinase ABL1 (Homo sapiens) (UniProt P00519); conditions: 50 uM
Description: Allosteric inhibition of recombinant wild type ABL (unknown origin) assessed as Vmax(app) for ATP at 50 uM incubated for 10 mins in presence of [gamma32P]ATP by scintillation counting method

[10] = target: Tyrosine-protein kinase ABL1 (Homo sapiens, UniProt P00519, T315I); test: Allosteric inhibition of recombinant human N-terminal His6-tagged ABL (27-end residues) T315I mutant expressed in baculovirus infected sf21 cells using Abl-tide as substrate incubated for 10 mins in presence of [gamma32P]ATP by scintillation counting method
[11] = target: Tyrosine-protein kinase ABL1 (Homo sapiens) (UniProt P00519); conditions: 100 uM
Description: Allosteric inhibition of recombinant wild type ABL (unknown origin) assessed as Vmax(app) for ATP at 100 uM incubated for 10 mins in presence of [gamma32P]ATP by scintillation counting method

| SMILES | Vmax(app) [1] [pmol/min] | pIC50 [2] | pIC50 [3] | Vmax(app) [4] [pmol/min] | Vmax(app) [5] [pmol/min] | Activity [6] | inhibition [7] | Vmax(app) [8] [pmol/min] | Vmax(app) [9] [pmol/min] | pIC50 [10] | Vmax(app) [11] [pmol/min] |
| --- | --- | --- | --- | --- | --- | --- | --- | --- | --- | --- | --- |
| C(=C\n1ncc2c(NC3CCCCC3)ncnc21)/c1ccccc1 | 8.06 | 4.60 | 5.07 | 15 | 13.1 | Non-toxic | Active | 4.95 | 8.57 | 4.30 | 5.83 |
| C(=C\n1ncc2c(N3CCCCCC3)ncnc21)/c1ccccc1 | – | 4.86 | 5.92 | – | – | Non-toxic | Active | – | – | 4.70 | – |
